Read-outs that look alike come from different tables or passages of the source. Marks after values point to notes of the source that are not given here.

Holding throughout (parameters): key: ++++: excellent (no pausing observed); +++: very good (with slight pausing); ++: Good, full-length products with significant pausing; +: significant pausing, no full-length product but at least one 2′F-araN incorporation detected
The target in test [1] is T1, Klenow fragment DNA polymerase (3′→ 5′ exo-) (Kf) (Escherichia coli, UniProt P00582, D355A/E357A).
T1 construct: the mesophilic enzyme Klenow fragment of DNA pol I (3′→5′ exo-) (“Kf”); purchased New England Biolabs
Format: biochemical, E. coli. To be noted: 37° C.; for Incorporation of three 2′F-araTTP / 2′F-araCTP (incorporation efficiency): DNA template PF22 (2′F-araTTP) or PF24 (2′F-araCTP); for Enzymatic activity during primer extension reactions: plus dATP, dGTP. The procedure: (§1) Various different types of DNA polymerases were assessed, including the mesophilic enzyme Klenow fragment of DNA pol I (3′→5′ exo-) (“Kf”); the thermophilic DNA polymerases DV, 9N, Taq, Bst pol I, Th and Ph; and the viral reverse transcriptases HIV RT and MMLV. Kf is a genetically engineered proteolytic product of E. coli pol A gene that encodes DNA polymerase I which retains polymerase activity but has a mutation which abolishes the 3′->5′ and 5′->3′ exonuclease activities. DV is a genetically engineered DNA polymerase purified from a strain of E. coli that carries the DV DNA polymerase gene from Pyrococcus species GB-D. The gene has been engineered to eliminate 3′->5′ proofreading exonuclease activity. 9N is a genetically engineered DNA polymerase that has decreased 3′->5′ proofreading exonuclease activity. 9N is purified from a strain of E. coli that carries a modified 9° N DNA polymerase gene from Thermococcus species (strain 9° N-7). […] Taq polymerase is isolated from E. coli engineered to express Taq polymerase from Thermus aquaticus YT-1. Bst DNA polymerase (Large fragment) is a genetically engineered polymerase that consists of the portion of the Bacillus stearothemmophilus DNA polymerase protein responsible for 5′->3′ polymerase activity but lacks the 5′->3′ exonuclease domain. Th DNA polymerase is a genetically engineered, archaeon-derived DNA polymerase that is a variant of the 9N polymerase described above. The recombinant protein is isolated from E. coli engineered to express 9° NA485L (exo-) DNA polymerase gene, a genetic variant of the native DNA polymerase from Thermococcus species 9° N-7. Ph is a recombinant DNA polymerase that consists of a novel Pyrococcus-like enzyme fused with a double-strand DNA-binding and processivity-enhancing domain.
(§2) Primer extension assays were used to assess the incorporation of 2′F-araNTP on the various DNA templates (Table 1). The DNA primer (PF20) was first radioactively labeled at the 5′-hydroxyl terminus with a radioactive phosphorus probe and the enzyme T4 polynucleotide kinase (T4 PNK) (see Example 1 for General Methods). To assess the incorporation of 2′F-araNTPs, the primer and template were annealed, and the nucleoside 5′-triphosphates added in the presence of enzyme under the conditions specified in Table 2. Time points were obtained by analyzing small aliquots from the reaction mixture through polyacryamide gel electrophoresis (PAGE) and autoradiography.
(§3) Unless otherwise noticed in the Examples described below, the conditions used in the primer extension assays, such as dNTP concentration, reaction temperatures, concentration of Mg^2+, and reaction buffers (provided by the manufacturers, except for the HIV buffer which was prepared in-house) are shown in Table 2. […]

Test [2] concerns Phusion™ High-Fidelity DNA polymerase (Ph). In words: Primer extension assay with Phusion High-Fidelity DNA polymerase. Type of test: biochemical. The conditions noted are these: 55° C.; for Incorporation of three 2′F-araTTP / 2′F-araCTP (incorporation efficiency): DNA template PF22 (2′F-araTTP) or PF24 (2′F-araCTP); for Enzymatic activity during primer extension reactions: plus dATP, dGTP. Here is the method:
as §1, §2, §3

The target in the next test is T2, Taq DNA polymerase (Taq) (Thermus aquaticus, UniProt P19821).
T2 construct: purchased New England Biolabs; host or cells: E. coli
The test is described as follows: Primer extension assay with Taq DNA polymerase. Type of test: biochemical, Thermus aquaticus YT-1. The conditions noted are these: for Incorporation of three 2′F-araTTP / 2′F-araCTP (incorporation efficiency): DNA template PF22 (2′F-araTTP) or PF24 (2′F-araCTP); for Enzymatic activity during primer extension reactions: plus dATP, dGTP. Here is the method: as §1, §2
(§4) Unless otherwise noticed in the Examples described below, the conditions used in the primer extension assays, such as dNTP concentration, reaction temperatures, concentration of Mg^2+, and reaction buffers (provided by the manufacturers, except for the HIV buffer which was prepared in-house) are shown in Table 2.
Primer extension assays were used to assess the incorporation of 2′F-araTTP on the DNA template (PF22). The DNA primer (PF20) was first radioactively labeled at the 5′-hydroxyl terminus with a radioactive phosphorus probe and the enzyme T4 polynucleotide kinase (T4 PNK) according to the manufacturer's specifications (MBI Fermentas Life Sciences, Burlington, ON). […]

The target of test [3] is T3, Bst DNA polymerase large fragment (Bst) (Geobacillus stearothermophilus, UniProt P52026).
T3 construct: consists of the portion of the Bacillus stearothemmophilus DNA polymerase protein responsible for 5′->3′ polymerase activity but lacks the 5′->3′ exonuclease domain; purchased New England Biolabs
T3 sequence (P52026 289-876 limits assumed): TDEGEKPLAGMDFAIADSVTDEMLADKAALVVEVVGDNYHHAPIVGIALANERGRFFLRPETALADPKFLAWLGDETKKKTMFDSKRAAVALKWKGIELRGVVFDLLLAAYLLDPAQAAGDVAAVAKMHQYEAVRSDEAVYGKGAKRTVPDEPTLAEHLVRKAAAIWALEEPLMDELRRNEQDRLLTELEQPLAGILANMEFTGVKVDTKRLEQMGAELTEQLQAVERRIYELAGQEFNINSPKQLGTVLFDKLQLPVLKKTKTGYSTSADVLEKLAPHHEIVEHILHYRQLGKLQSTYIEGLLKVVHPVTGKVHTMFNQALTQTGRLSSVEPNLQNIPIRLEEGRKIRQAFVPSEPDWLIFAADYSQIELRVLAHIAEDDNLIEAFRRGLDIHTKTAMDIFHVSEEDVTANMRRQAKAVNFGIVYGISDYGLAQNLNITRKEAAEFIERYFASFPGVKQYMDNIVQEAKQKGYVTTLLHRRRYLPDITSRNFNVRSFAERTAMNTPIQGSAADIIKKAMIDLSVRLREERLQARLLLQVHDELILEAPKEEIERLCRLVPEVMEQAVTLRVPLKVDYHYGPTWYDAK
In words: Primer extension assay with Bst DNA polymerase large fragment. To be noted: for Incorporation of three 2′F-araTTP / 2′F-araCTP (incorporation efficiency): DNA template PF22 (2′F-araTTP) or PF24 (2′F-araCTP); for Enzymatic activity during primer extension reactions: plus dATP, dGTP. Type of test: biochemical. Here is the method:
as §1, §2, §4
Primer extension assays were used to assess the incorporation of 2′F-araTTP on the DNA template (PF22). The DNA primer (PF20) was first radioactively labeled at the 5′-hydroxyl terminus with a radioactive phosphorus probe and the enzyme T4 polynucleotide kinase (T4 PNK) according to the manufacturer's specifications (MBI Fermentas Life Sciences, Burlington, ON). Incorporation of the ^32P label was accomplished in reaction mixtures consisting of DNA substrate (200 pmol), 2 μl loxreaction buffer (Buffer A for forward reaction: 500 mM Tris-HCl, pH 7.6 at 25° C., 100 mM MgCl2, 50 mM DTT, 1 mM spermidine and 1 mM EDTA), 1 μl T4 PNK enzyme solution (10 U/1 μl in a solution of 20 mM Tris-HCl, pH 7.5, 25 mM KCl, 0.1 mM EDTA, 2 mM DTT and 50% glycerol), 6 μl [γ-^32P]-ATP solution (6000 Ci/mmol, 10 mCi/ml; Amersham Biosciences, Inc.) and autoclaved sterile water to a final volume of 20 μl. The reaction mixture was incubated for about 45-60 min at 37° C., followed by a second incubation for 10 min at 95° C. to heat denature and deactivate the kinase enzyme.

[4] abbreviates: Example 3, DNA template PF24, 3x 2′F-araCTP, dTTP.
The mark [5] stands for this setting: Example 3, DNA template PF24, 3x 2′F-araCTP, dTTP, 55° C.
Setting [6] is: Example 2, DNA template PF22, 3x 2′F-araTTP, dCTP.

T2 sequence (P19821 whole entry): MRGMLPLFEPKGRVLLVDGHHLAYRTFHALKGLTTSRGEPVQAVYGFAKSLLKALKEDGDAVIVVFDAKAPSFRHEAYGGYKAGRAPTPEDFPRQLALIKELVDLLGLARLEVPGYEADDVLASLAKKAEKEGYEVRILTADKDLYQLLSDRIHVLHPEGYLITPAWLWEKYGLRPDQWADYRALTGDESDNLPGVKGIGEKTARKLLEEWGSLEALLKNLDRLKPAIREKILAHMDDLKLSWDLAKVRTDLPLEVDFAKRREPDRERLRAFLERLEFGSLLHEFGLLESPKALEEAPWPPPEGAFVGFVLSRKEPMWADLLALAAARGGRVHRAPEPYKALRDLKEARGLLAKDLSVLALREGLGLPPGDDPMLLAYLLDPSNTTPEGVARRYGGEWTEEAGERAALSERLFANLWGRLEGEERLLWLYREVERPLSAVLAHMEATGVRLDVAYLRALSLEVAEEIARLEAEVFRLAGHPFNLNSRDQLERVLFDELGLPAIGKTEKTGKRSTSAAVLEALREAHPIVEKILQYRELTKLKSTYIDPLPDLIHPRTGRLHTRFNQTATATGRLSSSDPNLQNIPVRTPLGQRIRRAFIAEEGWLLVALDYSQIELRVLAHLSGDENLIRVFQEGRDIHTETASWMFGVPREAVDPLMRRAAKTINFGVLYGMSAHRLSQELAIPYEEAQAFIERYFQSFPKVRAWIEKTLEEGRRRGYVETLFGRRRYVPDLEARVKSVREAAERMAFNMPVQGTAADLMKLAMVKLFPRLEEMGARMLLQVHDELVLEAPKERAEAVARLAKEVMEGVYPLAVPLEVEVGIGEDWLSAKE
T1 sequence (P00582 324-928 D355A/E357A): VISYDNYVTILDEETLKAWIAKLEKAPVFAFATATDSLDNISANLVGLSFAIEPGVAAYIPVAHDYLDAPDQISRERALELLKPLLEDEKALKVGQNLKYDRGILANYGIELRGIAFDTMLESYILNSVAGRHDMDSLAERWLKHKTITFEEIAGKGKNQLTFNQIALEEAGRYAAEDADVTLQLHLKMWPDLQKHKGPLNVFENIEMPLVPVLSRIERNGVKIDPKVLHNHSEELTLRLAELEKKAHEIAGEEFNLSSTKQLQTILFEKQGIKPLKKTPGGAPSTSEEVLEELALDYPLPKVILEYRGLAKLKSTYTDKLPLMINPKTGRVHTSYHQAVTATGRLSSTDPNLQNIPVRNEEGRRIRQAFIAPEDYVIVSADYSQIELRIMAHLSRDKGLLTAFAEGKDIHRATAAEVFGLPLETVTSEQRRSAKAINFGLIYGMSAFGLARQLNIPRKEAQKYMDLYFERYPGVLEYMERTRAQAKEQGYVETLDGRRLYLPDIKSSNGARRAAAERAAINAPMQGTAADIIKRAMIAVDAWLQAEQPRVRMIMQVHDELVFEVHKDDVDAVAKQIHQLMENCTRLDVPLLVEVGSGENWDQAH

In the case of `Nc1ccn([C@@H]2O[C@H](COP(=O)(O)OP(=O)(O)OP(=O)(O)O)[C@@H](O)[C@@H]2F)c(=O)n1` [2′F-araCTP, 1-(2-deoxy-2-fluoro-β-D-arabinofuranosyl)cytosine 5′-triphosphate], the “Incorporation of three 2′F-araTTP / 2′F-araCTP (incorporation efficiency)” value in test [1] is reported as “++”; in test [2], “++++”; on Taq DNA polymerase (Taq) (37° C.), “++”; at Taq DNA polymerase (Taq) (55° C.), “++++”; in test [3] (37° C.) it was “None”; in test [3] (55° C.) it was “++++”. Further, the “Enzymatic activity during primer extension reactions” value is on record as “++” in test [1] (setting [4]), “++++” in test [2] (setting [4]), “++++” on Taq DNA polymerase (Taq) (setting [5]) and “++++” in test [3] (setting [5]).

Regarding `Cc1cn([C@@H]2O[C@H](COP(=O)(O)OP(=O)(O)OP(=O)(O)O)[C@@H](O)[C@@H]2F)c(=O)[nH]c1=O` [2′F-araTTP, 1-(2-deoxy-2-fluoro-β-D-arabino-furanosyl)thymine 5′-triphosphate], the “Incorporation of three 2′F-araTTP / 2′F-araCTP (incorporation efficiency)” value is “++” in test [1]; “++++” in test [2]; “++” at Taq DNA polymerase (Taq) (37° C.); “++” in test [3] (37° C.); “+++” in test [3] (55° C.). Besides, the “Enzymatic activity during primer extension reactions” value in test [1] (setting [6]) is given as “++”; in test [2] (setting [6]), “++++”; on Taq DNA polymerase (Taq) (Example 2, DNA template PF22, 3x 2′F-araTTP, dCTP, at 37° C.), “++^b”; in test [3] (Example 2, DNA template PF22, 3x 2′F-araTTP, dCTP, 55° C.) it was “+++”.

Source of the values: patent US20090298708A1, “2'-DEOXY-2'-FLUORO-BETA-D-ARABINONUCLEOSIDE 5'-TRIPHOSPHATES AND THEIR USE IN ENZYMATIC NUCLEIC ACID SYNTHESIS” (priority 2006, published 2009).
